According to ChEMBL document CHEMBL4507261, “Data for DCP probe A-192621” (2021):

Assays:
[1] = biological target: Mitogen-activated protein kinase kinase kinase 10 (Homo sapiens) (UniProt Q02779); conditions: Compound concentration 1000.0 nM
[2] = biological target: Adenosine receptor A2a (Homo sapiens) (UniProt P29274); assay: A2A (h) Eurofins-Cerep binding assay; design: ligand concentration 6 nM; conditions: filed as agonist, Compound concentration 10.0 uM
[3] = test system: Epidermal growth factor receptor (Homo sapiens), P00533 [UNDEFINED MUTATION]; conditions: Compound concentration 1000.0 nM
[4] = biological target: Calcium/calmodulin-dependent protein kinase type II subunit delta (Homo sapiens) (UniProt Q13557); conditions: Compound concentration 1000.0 nM
[5] = biological target: Macrophage-stimulating protein receptor (Homo sapiens) (UniProt Q04912); conditions: Compound concentration 1000.0 nM
[6] = biological target: Tyrosine-protein kinase Srms (Homo sapiens) (UniProt Q9H3Y6); conditions: Compound concentration 1000.0 nM
[7] = biological target: Microtubule-associated serine/threonine-protein kinase 1 (Homo sapiens) (UniProt Q9Y2H9); conditions: Compound concentration 1000.0 nM
[8] = biological target: D(1A) dopamine receptor (Homo sapiens) (UniProt P21728); assay: D1 (h) Eurofins-Cerep binding assay; design: ligand concentration 0.3 nM; conditions: filed as antagonist, Compound concentration 10.0 uM
[9] = biological target: Serine/threonine-protein kinase DCLK1 (Homo sapiens) (UniProt O15075); conditions: Compound concentration 1000.0 nM
[10] = biological target: Ephrin type-B receptor 1 (Homo sapiens) (UniProt P54762); conditions: Compound concentration 1000.0 nM
[11] = biological target: Casein kinase I isoform epsilon (Homo sapiens) (UniProt P49674); conditions: Compound concentration 1000.0 nM
[12] = biological target: Dual specificity mitogen-activated protein kinase kinase 6 (Homo sapiens) (UniProt P52564); conditions: Compound concentration 1000.0 nM
[13] = biological target: STE20-like serine/threonine-protein kinase (Homo sapiens) (UniProt Q9H2G2); conditions: Compound concentration 1000.0 nM
[14] = biological target: RAC-beta serine/threonine-protein kinase (Homo sapiens) (UniProt P31751); conditions: Compound concentration 1000.0 nM
[15] = biological target: Cyclin-dependent kinase 4 (Homo sapiens) (UniProt P11802); conditions: Compound concentration 1000.0 nM
[16] = biological target: Serine/threonine-protein kinase TAO3 (Homo sapiens) (UniProt Q9H2K8); conditions: Compound concentration 1000.0 nM
[17] = test system: Tyrosine-protein kinase ABL1 (Homo sapiens), P00519 [H396P]; conditions: Compound concentration 1000.0 nM
[18] = biological target: Cyclin-dependent kinase-like 3 (Homo sapiens) (UniProt Q8IVW4); conditions: Compound concentration 1000.0 nM
[19] = biological target: Insulin receptor-related protein (Homo sapiens) (UniProt P14616); conditions: Compound concentration 1000.0 nM
[20] = biological target: ALK tyrosine kinase receptor (Homo sapiens) (UniProt Q9UM73); conditions: Compound concentration 1000.0 nM
[21] = biological target: TRAF2 and NCK-interacting protein kinase (Homo sapiens) (UniProt Q9UKE5); conditions: Compound concentration 1000.0 nM
[22] = biological target: 3-phosphoinositide-dependent protein kinase 1 (Homo sapiens) (UniProt O15530); conditions: Compound concentration 1000.0 nM
[23] = biological target: Glucocorticoid receptor (Homo sapiens) (UniProt P04150); assay: GR (h) Eurofins-Cerep binding assay; design: ligand concentration 1.5 nM; conditions: filed as agonist, Compound concentration 10.0 uM
[24] = biological target: Serine/threonine-protein kinase STK11 (Homo sapiens) (UniProt Q15831); conditions: Compound concentration 1000.0 nM
[25] = biological target: Phosphatidylinositol 4,5-bisphosphate 3-kinase catalytic subunit delta isoform (Homo sapiens) (UniProt O00329); conditions: Compound concentration 1000.0 nM
[26] = biological target: Serine/threonine-protein kinase haspin (Homo sapiens) (UniProt Q8TF76); conditions: Compound concentration 1000.0 nM
[27] = biological target: Serine/threonine-protein kinase 32A (Homo sapiens) (UniProt Q8WU08); conditions: Compound concentration 1000.0 nM
[28] = biological target: Megakaryocyte-associated tyrosine-protein kinase (Homo sapiens) (UniProt P42679); conditions: Compound concentration 1000.0 nM
[29] = biological target: T1, Alpha-2A adrenergic receptor (Homo sapiens) (UniProt P08913); assay: Alpha2A (h) Eurofins-Cerep binding assay; conditions: filed as antagonist, Compound concentration 10.0 uM
T1 sequence (whole entry): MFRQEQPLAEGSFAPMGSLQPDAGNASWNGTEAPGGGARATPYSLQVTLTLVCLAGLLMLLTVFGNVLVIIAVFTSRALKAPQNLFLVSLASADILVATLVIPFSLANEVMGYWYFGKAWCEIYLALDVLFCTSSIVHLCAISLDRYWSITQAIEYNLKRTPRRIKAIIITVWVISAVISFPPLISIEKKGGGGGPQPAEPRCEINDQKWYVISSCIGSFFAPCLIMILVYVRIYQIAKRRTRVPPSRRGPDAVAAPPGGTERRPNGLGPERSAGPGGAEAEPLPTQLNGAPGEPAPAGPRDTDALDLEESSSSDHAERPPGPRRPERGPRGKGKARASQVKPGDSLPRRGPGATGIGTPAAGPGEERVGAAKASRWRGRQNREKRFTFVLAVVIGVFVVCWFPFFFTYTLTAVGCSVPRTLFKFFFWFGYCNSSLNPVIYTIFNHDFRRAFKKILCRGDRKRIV

[30] = biological target: Serine/threonine-protein kinase WNK4 (Homo sapiens) (UniProt Q96J92); conditions: Compound concentration 1000.0 nM
[31] = biological target: Tyrosine-protein kinase Mer (Homo sapiens) (UniProt Q12866); conditions: Compound concentration 1000.0 nM
[32] = biological target: Ephrin type-A receptor 2 (Homo sapiens) (UniProt P29317); conditions: Compound concentration 1000.0 nM
[33] = biological target: Ephrin type-A receptor 1 (Homo sapiens) (UniProt P21709); conditions: Compound concentration 1000.0 nM
[34] = biological target: Glycogen synthase kinase-3 beta (Homo sapiens) (UniProt P49841); conditions: Compound concentration 1000.0 nM
[35] = biological target: GABA-A receptor; anion channel (Rattus norvegicus) (UniProt O09028+P15431+P18506+P18508+P19969+P20236+P23574+P23576+P28471+P28473+P30191+P62813+P63079+P63138+Q91ZM7+Q9ES14); assay: BZD (central) Eurofins-Cerep binding assay; assay type: protein-complex assay; design: ligand concentration 0.4 nM; conditions: filed as agonist, Compound concentration 10.0 uM
[36] = biological target: SRSF protein kinase 2 (Homo sapiens) (UniProt P78362); conditions: Compound concentration 1000.0 nM
[37] = biological target: Mitogen-activated protein kinase kinase kinase 4 (Homo sapiens) (UniProt Q9Y6R4); conditions: Compound concentration 1000.0 nM
[38] = biological target: Protein kinase C epsilon type (Homo sapiens) (UniProt Q02156); conditions: Compound concentration 1000.0 nM

Sequence of Adenosine receptor A2a (Homo sapiens) (P29274 whole entry): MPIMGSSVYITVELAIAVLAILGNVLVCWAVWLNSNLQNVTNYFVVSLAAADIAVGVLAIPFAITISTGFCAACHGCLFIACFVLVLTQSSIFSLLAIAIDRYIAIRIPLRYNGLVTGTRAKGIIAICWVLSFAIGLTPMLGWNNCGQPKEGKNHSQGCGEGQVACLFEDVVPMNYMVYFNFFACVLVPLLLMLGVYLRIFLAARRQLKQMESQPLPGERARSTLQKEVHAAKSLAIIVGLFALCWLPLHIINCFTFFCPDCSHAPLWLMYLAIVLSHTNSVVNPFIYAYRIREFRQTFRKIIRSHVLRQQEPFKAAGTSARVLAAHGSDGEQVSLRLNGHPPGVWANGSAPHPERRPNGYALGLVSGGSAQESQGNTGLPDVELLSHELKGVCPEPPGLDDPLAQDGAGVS
Sequence of 3-phosphoinositide-dependent protein kinase 1 (Homo sapiens) (O15530 whole entry): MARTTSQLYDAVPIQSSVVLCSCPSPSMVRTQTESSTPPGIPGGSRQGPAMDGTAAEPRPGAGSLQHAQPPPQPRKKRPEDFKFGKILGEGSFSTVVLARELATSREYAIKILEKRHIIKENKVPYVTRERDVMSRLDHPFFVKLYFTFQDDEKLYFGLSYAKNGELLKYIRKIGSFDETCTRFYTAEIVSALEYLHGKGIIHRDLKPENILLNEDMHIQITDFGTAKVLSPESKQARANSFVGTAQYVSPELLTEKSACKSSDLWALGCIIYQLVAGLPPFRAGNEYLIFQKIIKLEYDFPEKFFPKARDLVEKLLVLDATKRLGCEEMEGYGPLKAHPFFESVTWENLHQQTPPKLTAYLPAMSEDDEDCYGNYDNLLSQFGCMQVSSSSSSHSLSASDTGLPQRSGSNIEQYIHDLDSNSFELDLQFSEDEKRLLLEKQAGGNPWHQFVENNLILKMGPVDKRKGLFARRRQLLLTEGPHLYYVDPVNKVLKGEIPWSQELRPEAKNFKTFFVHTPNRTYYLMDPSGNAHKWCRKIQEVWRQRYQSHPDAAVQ
Sequence of Glycogen synthase kinase-3 beta (Homo sapiens) (P49841 whole entry, looked up): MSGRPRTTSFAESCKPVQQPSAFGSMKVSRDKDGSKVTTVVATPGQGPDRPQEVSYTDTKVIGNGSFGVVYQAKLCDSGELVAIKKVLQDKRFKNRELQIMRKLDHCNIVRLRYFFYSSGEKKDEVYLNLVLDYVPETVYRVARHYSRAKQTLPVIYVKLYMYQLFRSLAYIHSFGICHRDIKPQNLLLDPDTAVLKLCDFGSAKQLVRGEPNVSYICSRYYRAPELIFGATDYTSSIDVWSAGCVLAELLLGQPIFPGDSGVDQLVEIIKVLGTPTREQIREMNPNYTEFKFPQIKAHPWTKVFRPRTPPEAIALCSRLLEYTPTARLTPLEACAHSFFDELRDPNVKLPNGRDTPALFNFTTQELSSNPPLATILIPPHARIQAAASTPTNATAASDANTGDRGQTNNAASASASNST
Sequence of Calcium/calmodulin-dependent protein kinase type II subunit delta (Homo sapiens) (Q13557 whole entry): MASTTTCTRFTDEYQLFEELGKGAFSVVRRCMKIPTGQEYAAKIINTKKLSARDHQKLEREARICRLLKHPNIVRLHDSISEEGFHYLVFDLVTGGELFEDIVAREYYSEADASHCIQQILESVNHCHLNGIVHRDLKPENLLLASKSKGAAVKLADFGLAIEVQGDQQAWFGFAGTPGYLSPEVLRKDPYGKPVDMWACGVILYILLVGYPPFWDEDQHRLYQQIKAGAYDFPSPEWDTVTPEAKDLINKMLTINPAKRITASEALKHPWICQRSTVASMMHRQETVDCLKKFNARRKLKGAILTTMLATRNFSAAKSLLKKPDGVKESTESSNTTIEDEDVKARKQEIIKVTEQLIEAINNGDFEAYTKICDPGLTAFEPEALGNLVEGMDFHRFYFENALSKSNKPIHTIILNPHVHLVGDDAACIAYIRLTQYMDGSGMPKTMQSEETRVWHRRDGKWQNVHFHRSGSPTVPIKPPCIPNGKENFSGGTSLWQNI
Sequence of Phosphatidylinositol 4,5-bisphosphate 3-kinase catalytic subunit delta isoform (Homo sapiens) (O00329 whole entry, canonical isoform): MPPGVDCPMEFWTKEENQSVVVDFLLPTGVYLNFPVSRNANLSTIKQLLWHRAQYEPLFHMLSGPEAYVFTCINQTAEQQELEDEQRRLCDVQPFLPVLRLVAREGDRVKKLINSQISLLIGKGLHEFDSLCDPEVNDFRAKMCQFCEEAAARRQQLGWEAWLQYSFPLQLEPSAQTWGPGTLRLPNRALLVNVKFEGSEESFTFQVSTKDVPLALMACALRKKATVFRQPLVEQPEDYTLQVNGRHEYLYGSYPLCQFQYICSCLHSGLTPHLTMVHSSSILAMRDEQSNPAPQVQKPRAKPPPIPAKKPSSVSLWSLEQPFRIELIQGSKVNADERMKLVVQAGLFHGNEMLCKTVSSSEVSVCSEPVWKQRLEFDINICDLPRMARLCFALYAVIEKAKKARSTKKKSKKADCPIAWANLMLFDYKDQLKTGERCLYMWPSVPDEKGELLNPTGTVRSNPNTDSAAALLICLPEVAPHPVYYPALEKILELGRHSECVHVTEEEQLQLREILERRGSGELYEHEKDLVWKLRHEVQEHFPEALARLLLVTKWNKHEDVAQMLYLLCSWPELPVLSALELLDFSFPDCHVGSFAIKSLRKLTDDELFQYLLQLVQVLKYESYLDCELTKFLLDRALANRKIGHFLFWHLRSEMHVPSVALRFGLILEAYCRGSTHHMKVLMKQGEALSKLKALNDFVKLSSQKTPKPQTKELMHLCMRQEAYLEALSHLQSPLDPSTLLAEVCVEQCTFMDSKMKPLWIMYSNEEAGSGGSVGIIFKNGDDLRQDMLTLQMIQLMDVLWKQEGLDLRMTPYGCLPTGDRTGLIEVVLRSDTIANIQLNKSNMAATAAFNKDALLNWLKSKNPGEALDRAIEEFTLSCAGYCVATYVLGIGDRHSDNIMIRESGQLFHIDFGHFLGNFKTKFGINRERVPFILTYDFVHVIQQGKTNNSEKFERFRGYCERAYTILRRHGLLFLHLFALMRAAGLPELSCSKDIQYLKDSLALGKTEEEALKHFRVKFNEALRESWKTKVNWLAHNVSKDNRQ
Sequence of Serine/threonine-protein kinase DCLK1 (Homo sapiens) (O15075 whole entry): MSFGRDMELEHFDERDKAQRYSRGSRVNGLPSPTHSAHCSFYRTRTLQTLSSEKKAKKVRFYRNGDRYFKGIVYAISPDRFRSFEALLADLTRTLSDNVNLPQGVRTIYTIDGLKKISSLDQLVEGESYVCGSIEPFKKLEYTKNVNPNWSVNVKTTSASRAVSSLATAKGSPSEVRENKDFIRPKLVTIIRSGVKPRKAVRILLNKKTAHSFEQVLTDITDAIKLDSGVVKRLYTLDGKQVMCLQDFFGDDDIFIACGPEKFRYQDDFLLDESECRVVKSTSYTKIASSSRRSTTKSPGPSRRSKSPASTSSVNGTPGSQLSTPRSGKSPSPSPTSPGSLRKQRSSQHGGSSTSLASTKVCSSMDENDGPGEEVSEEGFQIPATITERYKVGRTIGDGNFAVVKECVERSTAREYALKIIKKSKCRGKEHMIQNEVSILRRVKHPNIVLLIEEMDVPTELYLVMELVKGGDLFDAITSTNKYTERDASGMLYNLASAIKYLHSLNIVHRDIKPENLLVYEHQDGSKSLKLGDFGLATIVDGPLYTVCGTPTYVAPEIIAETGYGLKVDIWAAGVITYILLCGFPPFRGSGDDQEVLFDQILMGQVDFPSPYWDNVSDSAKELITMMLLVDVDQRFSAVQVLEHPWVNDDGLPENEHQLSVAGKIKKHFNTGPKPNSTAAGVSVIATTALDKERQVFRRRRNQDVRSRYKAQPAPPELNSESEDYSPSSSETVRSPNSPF
Sequence of Glucocorticoid receptor (Homo sapiens) (P04150 whole entry): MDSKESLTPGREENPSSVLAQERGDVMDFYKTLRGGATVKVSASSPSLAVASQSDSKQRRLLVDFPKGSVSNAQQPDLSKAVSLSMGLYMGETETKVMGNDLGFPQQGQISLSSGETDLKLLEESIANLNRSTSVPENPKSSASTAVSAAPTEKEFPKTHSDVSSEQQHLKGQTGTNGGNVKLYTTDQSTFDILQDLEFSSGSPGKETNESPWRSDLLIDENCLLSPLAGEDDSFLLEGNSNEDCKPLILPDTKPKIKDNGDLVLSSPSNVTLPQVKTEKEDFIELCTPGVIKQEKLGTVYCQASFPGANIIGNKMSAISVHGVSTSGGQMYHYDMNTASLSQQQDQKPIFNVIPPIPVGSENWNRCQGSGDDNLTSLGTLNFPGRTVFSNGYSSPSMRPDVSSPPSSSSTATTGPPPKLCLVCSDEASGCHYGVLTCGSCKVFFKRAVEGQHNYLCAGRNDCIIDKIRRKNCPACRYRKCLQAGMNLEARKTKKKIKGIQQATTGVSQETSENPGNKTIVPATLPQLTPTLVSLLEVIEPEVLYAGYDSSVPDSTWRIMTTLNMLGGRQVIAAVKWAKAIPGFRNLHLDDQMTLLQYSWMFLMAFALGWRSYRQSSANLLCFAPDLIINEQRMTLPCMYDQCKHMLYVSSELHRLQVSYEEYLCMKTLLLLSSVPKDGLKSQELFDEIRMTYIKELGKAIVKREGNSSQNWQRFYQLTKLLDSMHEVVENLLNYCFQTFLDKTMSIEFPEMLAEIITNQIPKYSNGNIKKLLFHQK
Sequence of Casein kinase I isoform epsilon (Homo sapiens) (P49674 whole entry, looked up, canonical isoform): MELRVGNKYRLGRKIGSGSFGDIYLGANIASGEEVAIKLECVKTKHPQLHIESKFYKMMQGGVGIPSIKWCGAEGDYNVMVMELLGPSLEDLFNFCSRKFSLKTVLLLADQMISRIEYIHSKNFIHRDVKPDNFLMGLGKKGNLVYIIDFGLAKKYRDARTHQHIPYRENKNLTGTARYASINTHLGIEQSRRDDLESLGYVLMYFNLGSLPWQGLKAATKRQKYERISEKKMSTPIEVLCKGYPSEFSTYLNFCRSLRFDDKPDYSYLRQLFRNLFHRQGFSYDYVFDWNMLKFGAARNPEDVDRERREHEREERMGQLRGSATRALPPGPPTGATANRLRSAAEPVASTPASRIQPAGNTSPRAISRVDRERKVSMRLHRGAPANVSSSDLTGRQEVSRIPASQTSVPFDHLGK

| Structure (SMILES) | residual activity [1] | % Inhibition of Control Specific Binding (Mean n=2) [2] | residual activity [3] | residual activity [4] | residual activity [5] | residual activity [6] | residual activity [7] | % Inhibition of Control Specific Binding (Mean n=2) [8] | residual activity [9] | residual activity [10] | residual activity [11] | residual activity [12] | residual activity [13] | residual activity [14] | residual activity [15] | residual activity [16] | residual activity [17] | residual activity [18] | residual activity [19] | residual activity [20] | further results |
| --- | --- | --- | --- | --- | --- | --- | --- | --- | --- | --- | --- | --- | --- | --- | --- | --- | --- | --- | --- | --- | --- |
| CCCOc1ccc([C@H]2[C@H](C(=O)O)[C@@H](c3ccc4c(c3)OCO4)CN2CC(=O)Nc2c(CC)cccc2CC)cc1 [A-192621] | 100% | -4.8% | 89% | 93% | 86% | 63% | 93% | -2.2% | 75% | 100% | 100% | 100% | 100% | 100% | 100% | 81% | 63% | 92% | 94% | 100% | residual activity [21]: 88%; residual activity [22]: 100%; % Inhibition of Control Specific Binding (Mean n=2) [23]: 7%; residual activity [24]: 88%; residual activity [25]: 75%; residual activity [26]: 62%; residual activity [27]: 93%; residual activity [28]: 83%; % Inhibition of Control Specific Binding [29]: -2.4%; residual activity [30]: 81%; residual activity [31]: 87%; residual activity [32]: 100%; residual activity [33]: 86%; residual activity [34]: 73%; % Inhibition of Control Specific Binding (Mean n=2) [35]: -35.5%; residual activity [36]: 96%; residual activity [37]: 88%; residual activity [38]: 74% |
| CCCOc1ccc([C@@H]2[C@@H](C(=O)O)[C@H](c3ccc4c(c3)OCO4)CN2CC(=O)Nc2c(CC)cccc2CC)cc1 [A-1806262] | 100% | -12.4% | 66% | 88% | 91% | 90% | 100% | -0.2% | 80% | 91% | 98% | 100% | 100% | 100% | 100% | 100% | 89% | 95% | 100% | 100% | residual activity [21]: 100%; residual activity [22]: 100%; % Inhibition of Control Specific Binding (Mean n=2) [23]: 4.1%; residual activity [24]: 100%; residual activity [25]: 90%; residual activity [26]: 99%; residual activity [27]: 85%; residual activity [28]: 90%; % Inhibition of Control Specific Binding (Mean n=2) [29]: -7.1%; residual activity [30]: 80%; residual activity [31]: 97%; residual activity [32]: 100%; residual activity [33]: 100%; residual activity [34]: 100%; % Inhibition of Control Specific Binding (Mean n=2) [35]: -12.9%; residual activity [36]: 100%; residual activity [37]: 99%; residual activity [38]: 97% |
